Test results reported in ChEMBL document CHEMBL1201862, “PubChem BioAssay data set” (2004).
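Briefly, cells in 96-well plates were exposed to five compound concentrations for 48 h, and endpoints were estimated by linear interpolation. The concentration for 50% growth inhibition is given as GI50.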 The source made the active and inactive calls. Rule as the data show it: active = GI50 up to about 1.1 µM and inactive = higher.

Assays:
Assay in all cases: NCI-60 cell line screen, 48 h
786-0 = system: 786-0
A498 = system: A498
A549 = system: A549
ACHN = system: ACHN
BT-549 = system: BT-549
CAKI-1 = system: CAKI-1
CCRF-CEM = system: CCRF-CEM
COLO 205 = system: COLO 205
DU-145 = system: DU-145
EKVX = system: EKVX
HCC 2998 = system: HCC 2998
HCT-116 = system: HCT-116
HCT-15 = system: HCT-15
HL-60 = system: HL-60
HOP-62 = system: HOP-62
HOP-92 = system: HOP-92
HT-29 = system: HT-29
IGROV-1 = system: IGROV-1
K562 = system: K562
KM12 = system: KM12
LOX IMVI = system: LOX IMVI
M14 = system: M14
MCF7 = system: MCF7
MDA-MB-231 = system: MDA-MB-231
MDA-MB-435 = system: MDA-MB-435
MDA-N = system: MDA-N
MOLT-4 = system: MOLT-4
Malme-3M = system: Malme-3M
NCI-H226 = system: NCI-H226
NCI-H23 = system: NCI-H23
NCI-H460 = system: NCI-H460
NCI-H522 = system: NCI-H522
NCI/ADR-RES = system: NCI/ADR-RES
OVCAR-3 = system: OVCAR-3
OVCAR-4 = system: OVCAR-4
OVCAR-5 = system: OVCAR-5
OVCAR-8 = system: OVCAR-8
PC-3 = system: PC-3
RXF 393 = system: RXF 393
SF-268 = system: SF-268
SF-295 = system: SF-295
SF-539 = system: SF-539
SK-MEL-28 = system: SK-MEL-28
SK-OV-3 = system: SK-OV-3
SN12C = system: SN12C
SNB-19 = system: SNB-19
SNB-75 = system: SNB-75
SW-620 = system: SW-620
T47D = system: T47D
TK-10 = system: TK-10
U-251 = system: U-251
UACC-257 = system: UACC-257
UACC-62 = system: UACC-62
UO-31 = system: UO-31
RPMI-8226 = system: RPMI-8226
SK-MEL-2 = system: SK-MEL-2
SK-MEL-5 = system: SK-MEL-5
SR = system: SR

CC(=O)Oc1cc(C(F)(F)F)ccc1C(=O)OC1(C)OC(=O)c2ccc(C(F)(F)F)cc2O1 (stereo not given)
GI50 (786-0): > 100 µM (inactive) | GI50 (A498): > 100 µM (inactive) | GI50 (A549): > 100 µM (inactive) | GI50 (ACHN): > 100 µM (inactive) | GI50 (BT-549): > 100 µM (inactive) | GI50 (CAKI-1): > 100 µM (inactive) | GI50 (CCRF-CEM): > 100 µM (inactive) | GI50 (COLO 205): > 100 µM (inactive) | GI50 (DU-145): > 100 µM (inactive) | GI50 (EKVX): > 100 µM (inactive) | GI50 (HCC 2998): > 100 µM (inactive) | GI50 (HCT-116): > 100 µM (inactive) | GI50 (HCT-15): > 100 µM | GI50 (HL-60): > 100 µM (inactive) | GI50 (HOP-62): > 100 µM (inactive) | GI50 (HOP-92): > 100 µM (inactive) | GI50 (HT-29): > 100 µM (inactive) | GI50 (IGROV-1): > 100 µM (inactive) | GI50 (K562): > 100 µM (inactive) | GI50 (KM12): > 100 µM (inactive) | GI50 (LOX IMVI): > 100 µM (inactive) | GI50 (M14): > 100 µM (inactive) | GI50 (MCF7): > 100 µM (inactive) | GI50 (MDA-MB-231): > 100 µM (inactive) | GI50 (MDA-MB-435): > 100 µM (inactive) | GI50 (MDA-N): > 100 µM (inactive) | GI50 (MOLT-4): > 100 µM (inactive) | GI50 (Malme-3M): > 100 µM (inactive) | GI50 (NCI-H226): > 100 µM (inactive) | GI50 (NCI-H23): > 100 µM (inactive) | GI50 (NCI-H460): > 100 µM (inactive) | GI50 (NCI-H522): > 100 µM (inactive) | GI50 (NCI/ADR-RES): > 100 µM (inactive) | GI50 (OVCAR-3): > 100 µM (inactive) | GI50 (OVCAR-4): > 100 µM (inactive) | GI50 (OVCAR-5): > 100 µM (inactive) | GI50 (OVCAR-8): > 100 µM (inactive) | GI50 (PC-3): > 100 µM (inactive) | GI50 (RXF 393): > 100 µM (inactive) | GI50 (SF-268): > 100 µM (inactive) | GI50 (SF-295): > 100 µM (inactive) | GI50 (SF-539): > 100 µM (inactive) | GI50 (SK-MEL-28): > 100 µM (inactive) | GI50 (SK-OV-3): > 100 µM (inactive) | GI50 (SN12C): 97.5 µM (inactive) | GI50 (SNB-19): > 100 µM (inactive) | GI50 (SNB-75): 9.86 µM (inactive) | GI50 (SW-620): > 100 µM (inactive) | GI50 (T47D): > 100 µM (inactive) | GI50 (TK-10): > 100 µM (inactive) | GI50 (U-251): > 100 µM (inactive) | GI50 (UACC-257): > 100 µM (inactive) | GI50 (UACC-62): > 100 µM (inactive) | GI50 (UO-31): > 100 µM (inactive)

CC(C)=CCCC1(Sc2ccccc2)C(=O)OCC1C=C(C)C (stereo not given)
GI50 (786-0): 17.7 µM (inactive) | GI50 (A498): 52.4 µM (inactive) | GI50 (A549): 13.5 µM (inactive) | GI50 (ACHN): 32.5 µM (inactive) | GI50 (BT-549): 36.3 µM (inactive) | GI50 (CAKI-1): 23.2 µM (inactive) | GI50 (CCRF-CEM): 32.4 µM (inactive) | GI50 (COLO 205): 23.2 µM (inactive) | GI50 (EKVX): 19 µM (inactive) | GI50 (HCC 2998): 29.8 µM (inactive) | GI50 (HCT-116): 11.5 µM (inactive) | GI50 (HCT-15): 29.9 µM | GI50 (HOP-62): 48.9 µM (inactive) | GI50 (IGROV-1): 16.8 µM (inactive) | GI50 (KM12): 27 µM (inactive) | GI50 (LOX IMVI): 16.5 µM (inactive) | GI50 (M14): 17.3 µM (inactive) | GI50 (MCF7): 38.9 µM (inactive) | GI50 (MDA-MB-231): 47.2 µM (inactive) | GI50 (MDA-MB-435): 32.1 µM (inactive) | GI50 (MDA-N): 19.9 µM (inactive) | GI50 (MOLT-4): 7.31 µM (inactive) | GI50 (Malme-3M): 17.5 µM (inactive) | GI50 (NCI-H226): 24.3 µM (inactive) | GI50 (NCI-H23): 31.3 µM (inactive) | GI50 (NCI-H460): 18.3 µM (inactive) | GI50 (NCI-H522): 23.2 µM (inactive) | GI50 (NCI/ADR-RES): 21.2 µM (inactive) | GI50 (OVCAR-3): 17.3 µM (inactive) | GI50 (OVCAR-4): 29 µM (inactive) | GI50 (OVCAR-5): 21.3 µM (inactive) | GI50 (OVCAR-8): 30.5 µM (inactive) | GI50 (PC-3): 31.8 µM (inactive) | GI50 (RPMI-8226): 21.5 µM (inactive) | GI50 (RXF 393): 17.1 µM (inactive) | GI50 (SF-268): 38.6 µM (inactive) | GI50 (SF-295): 36.7 µM (inactive) | GI50 (SF-539): 20.6 µM (inactive) | GI50 (SK-MEL-28): 47.3 µM (inactive) | GI50 (SK-MEL-2): 18.5 µM (inactive) | GI50 (SK-MEL-5): 20.3 µM (inactive) | GI50 (SK-OV-3): 21.1 µM (inactive) | GI50 (SN12C): 15 µM (inactive) | GI50 (SNB-19): 21.5 µM (inactive) | GI50 (SNB-75): 36.6 µM (inactive) | GI50 (SW-620): 61.9 µM (inactive) | GI50 (T47D): 22.4 µM (inactive) | GI50 (TK-10): 34.8 µM (inactive) | GI50 (U-251): 27.7 µM (inactive) | GI50 (UACC-257): 17.5 µM (inactive) | GI50 (UO-31): 22.6 µM (inactive)

Cc1cn(C2CC(SCCO)C(CO)O2)c(=O)[nH]c1=O (stereo not given)
GI50 (786-0): > 100 µM (inactive) | GI50 (A498): > 100 µM (inactive) | GI50 (A549): > 100 µM (inactive) | GI50 (ACHN): > 100 µM (inactive) | GI50 (BT-549): > 100 µM (inactive) | GI50 (CAKI-1): > 100 µM (inactive) | GI50 (CCRF-CEM): > 100 µM (inactive) | GI50 (COLO 205): > 100 µM (inactive) | GI50 (DU-145): > 100 µM (inactive) | GI50 (EKVX): > 100 µM (inactive) | GI50 (HCC 2998): > 100 µM (inactive) | GI50 (HCT-116): > 100 µM (inactive) | GI50 (HCT-15): > 100 µM | GI50 (HL-60): > 100 µM (inactive) | GI50 (HOP-62): > 100 µM (inactive) | GI50 (HOP-92): > 100 µM (inactive) | GI50 (HT-29): > 100 µM (inactive) | GI50 (IGROV-1): > 100 µM (inactive) | GI50 (K562): > 100 µM (inactive) | GI50 (KM12): > 100 µM (inactive) | GI50 (M14): > 100 µM (inactive) | GI50 (MCF7): > 100 µM (inactive) | GI50 (MDA-MB-231): > 100 µM (inactive) | GI50 (MDA-MB-435): > 100 µM (inactive) | GI50 (MDA-N): > 100 µM (inactive) | GI50 (MOLT-4): > 100 µM (inactive) | GI50 (Malme-3M): > 100 µM (inactive) | GI50 (NCI-H226): > 100 µM (inactive) | GI50 (NCI-H23): > 100 µM (inactive) | GI50 (NCI-H460): > 100 µM (inactive) | GI50 (NCI-H522): > 100 µM (inactive) | GI50 (NCI/ADR-RES): > 100 µM (inactive) | GI50 (OVCAR-3): > 100 µM (inactive) | GI50 (OVCAR-4): > 100 µM (inactive) | GI50 (OVCAR-5): > 100 µM (inactive) | GI50 (OVCAR-8): > 100 µM (inactive) | GI50 (PC-3): > 100 µM (inactive) | GI50 (RPMI-8226): > 100 µM (inactive) | GI50 (RXF 393): > 100 µM (inactive) | GI50 (SF-268): > 100 µM (inactive) | GI50 (SF-295): > 100 µM (inactive) | GI50 (SF-539): > 100 µM (inactive) | GI50 (SK-MEL-28): > 100 µM (inactive) | GI50 (SK-MEL-2): > 100 µM (inactive) | GI50 (SK-OV-3): > 100 µM (inactive) | GI50 (SN12C): > 100 µM (inactive) | GI50 (SNB-19): > 100 µM (inactive) | GI50 (SNB-75): > 100 µM (inactive) | GI50 (SR): > 100 µM (inactive) | GI50 (SW-620): > 100 µM (inactive) | GI50 (T47D): > 100 µM (inactive) | GI50 (U-251): > 100 µM (inactive) | GI50 (UACC-257): > 100 µM (inactive) | GI50 (UACC-62): > 100 µM (inactive) | GI50 (UO-31): > 100 µM (inactive)
